{"source": "patent US20220175926A1", "about": "“TARGETED SYNERGISTIC CANCER IMMUNOTHERAPY” (The Brigham and Women's Hospital, Inc., priority 2019, published 2022)", "key": {"RAW 264.7 macrophages": {"tested_on": "RAW 264.7 macrophages", "assay": "TNFα secretion from RAW 264.7 macrophages (ELISA)", "type": "cell-based, mouse", "settings": "RAW264.7 macrophages; compared with no treatment control", "protocol": "RAW 264.7 macrophages (ATCC, VA, USA) were seeded in a 96 well plate at a density of 20,000 cells per well. Cells were incubated with 10 ng/mL R848 (Sigma, MO, USA) and/or 20 ng/mL ICG (Sigma, MO, USA) for 24 h. Ultrasound irradiation (frequency: 1 MHz; duty cycle: 50%; power: 2 W/cm^2) was applied to these cells for up to 5 min. TNFα secretion was analyzed by mouse TNFα DuoSet ELISA (R&D Systems, MN, USA) following the manufacturer's instructions. […] In some experiments, cells were also treated with 0.5, 1, or 2 mM of ROS scavenger N-acetyl-cysteine (Sigma, MO, USA) right before treatment with ultrasound."}, "iBMDM": {"tested_on": "iBMDM", "assay": "IL-1β secretion from iBMDM (ELISA)", "type": "cell-based, mouse", "description": "RAW 264.7 macrophages (ATCC, VA, USA) were seeded in a 96 well plate at a density of 20,000 cells per well. Cells were incubated with 10 ng/mL R848 (Sigma, MO, USA) and/or 20 ng/mL ICG (Sigma, MO, USA) for 24 h. Ultrasound irradiation (frequency: 1 MHz; duty cycle: 50%; power: 2 W/cm^2) was applied to these cells for up to 5 min. TNFα secretion was analyzed by mouse TNFα DuoSet ELISA (R&D Systems, MN, USA) following the manufacturer's instructions. To measure IL-1β secretion, immortal bone marrow derived macrophages or iBMDM (BCH, MA, USA)) were seeded in a 96 well plate at a density of 20,000 cells per well. Cells were incubated with 10 ng/mL PAPC (Avanti, AL, USA) and/or 20 ng/mL ICG for 24 h. Ultrasound irradiation (frequency: 1 MHz; duty cycle: 50%; power: 2 W/cm^2) was applied to these cells for up to 5 min. IL-1β secretion was analyzed by mouse IL-1β ELISA (Invitrogen, CA, USA) following the manufacturer's instructions. In some experiments, cells were also treated with 0.5, 1, or 2 mM of ROS scavenger N-acetyl-cysteine (Sigma, MO, USA) right before treatment with ultrasound."}, "CT26": {"tested_on": "CT26", "assay": "Transwell co-culture assay, viability of CT26 tumor cells cocultured with RAW 264.7 macrophages (XTT)", "type": "cell-based", "settings": "single component or component removed", "description": "RAW 264.7 macrophages were seeded in a Transwell insert at a density of 200,000 cells per insert (Corning, N.Y., USA) and CT26 (ATCC, VA, USA) were seeded in the lower compartment at a density of 200,000 cells per well, which was separated by a porous membrane (well area: 0.3 cm^2, insert size: 6.5 mm). Cells were incubated with […] and/or 20 ng/mL ICG for 24 h. Ultrasound irradiation (frequency: 1 MHz; duty cycle: 50%; power: 2 W/cm^2) was performed for 5 min. The viability of tumor cells after treatment with different formulations in the absence or presence of ultrasound was determined by XTT Cell Proliferation Assay Kit (ATCC, VA, USA) following the manufacturer's instructions."}, "[1]": {"assay": "Loading efficiency in liposomes", "type": "physicochemical", "settings": "sonosensitizer incubated with preformed liposomes at room temperature", "description": "The lipid suspension was extruded through the 100 nm polycarbonate membrane using the extruder (Avanti, AL, USA) to obtain blank liposomes. Ethanol was removed by dialysis overnight at 4° C. To load the sonosensitizer in liposomes, ICG was firstly conjugated to a lipid tail such as DOPE before incubation with preformed blank liposomes at room temperature for 30 min. Unloaded ICG was removed by using the PD-10 column (GE Healthcare). To load PAPC (Avanti, AL, USA) in liposomes, the proper amount of PAPC in DMSO stock solution was incubated with liposomes containing ICG at room temperature for 30 min and the obtained formulation was used without further purification. To load R848 (Sigma, MO, USA) in liposomes, blank liposomes were firstly prepared in 250 mM ammonium sulfate, and the external ammonium sulfate was exchanged to 10% sucrose by dialysis overnight at 4° C., followed by incubation with R848 at 55° C. for 30 min and removal of unloaded R848 by dialysis overnight at 4° C. To measure the size of liposomes, 10 ul of liposomes were diluted to 2 mL with PBS and the size was measured with Zeta sizer. To measure the amount of ICG, 10 ul liposomes were added with 190 ul DMSO and the fluorescence was measured at Ex=780 nm, Em=810 nm."}, "[2]": {"assay": "Pharmacokinetic study after intravenous injection", "type": "in vivo", "settings": "C57BL/6 mice", "description": "C57BL/6 mice were intravenously injected with free ICG or lipo-ICG (liposome encapsulated ICG). At predetermined time points (0.25, 1, 3, 7, and 24 h post injection), 50 ul blood were collected in Microvette 500 Z-gel tubes by submandibular bleeding and kept on ice. The samples were centrifuged at 10,000 g for 5 min at room temperature, and 10 ul of the serum were diluted to 100 ul with PBS and the fluorescence intensity was measured at Ex=780, Em=810 nm."}}}
{"smiles": "CC1(C)C(/C=C/C=C/C=C/C=C2\\N(CCCCS(=O)(=O)O)c3ccc4ccccc4c3C2(C)C)=[N+](CCCCS(=O)(=O)[O-])c2ccc3ccccc3c21", "note": "[ICG, indocyanine green]", "values": [{"measurement": "TNFα release", "setting": "RAW 264.7 macrophages", "result": "didn't induce significant TNFα release"}, {"measurement": "IL-1β release", "setting": "iBMDM", "result": "didn't induce any detectable level of IL-1β"}, {"measurement": "CT26 cell viability", "setting": "CT26", "result": "modest decrease of CT26 cell viability"}, {"measurement": "loading efficiency", "setting": "[1]", "result": "less than 20%"}, {"measurement": "detectability of ICG in serum after injection", "setting": "[2]", "result": "not detectable within a few minutes after injection"}]}
{"smiles": "CCCCC/C=C\\C/C=C\\C/C=C\\C/C=C\\CCCC(=O)O[C@H](COC(=O)CCCCCCCCCCCCCCC)COP(=O)([O-])OCC[N+](C)(C)C", "note": "[PAPC, 1-palmitoyl-2-arachidonoyl-sn-glycero-3-phosphocholine]", "values": [{"measurement": "IL-1β release", "setting": "iBMDM", "result": "didn't induce any detectable level of IL-1β"}]}
{"smiles": "CC(=O)N[C@@H](CS)C(=O)O", "note": "[NAC, N-acetyl-cysteine]", "values": [{"measurement": "IL-1β release on ROS depletion", "setting": "iBMDM; ROS scavenger added to PAPC+ICG+US", "result": "dose dependent reduction of IL-1β"}]}
